Laboratory results taken from patent publication US9833497B2, “Human originated EGF domain proteins and use of the same” (CHENGDU SOURCEBIO LIMITED-LIABILITY COMPANY, priority 2013, dated 2017).

Experiments:
Type in all cases: cell-based
Enterobacter cloacae = assay: MIC against Gram-negative bacteria: Enterobacter cloacae
Summary of the method: (§1)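 Broth microdilution, LB medium, final inoculum 5×10^5 CFU/mL from McFarland 0.5 cultures. Recombinant human EGF domain proteins tested in two-fold steps, n=3. MIC: lowest concentration, no growth.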

E. coli BL21 = assay: MIC against Gram-negative bacteria: E. coli BL21
Summary of the method: as §1

Aeromonas hydrophila = assay: MIC against Gram-negative bacteria: Aeromonas hydrophila
Summary of the method: as §1

Proteus mirabilis = assay: MIC against Gram-negative bacteria: Proteus mirabilis
Summary of the method: as §1

E. coli DH5α = assay: Antibacterial activity: MIC and growth curve against E. coli DH5α in 96-well plate; conditions: minimal inhibitory concentration against E. coli DH5α; 96-well plate, 5×10^5 CFU/mL, 37° C., judged after 8 h
Summary of the method: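 MIC taken as lowest protein level with no bacterial growth, tracked by A600 every 30 min during 37 °C, 175 rpm culture. Two-fold protein series 50-12.5 μg/mL final, triplicate wells, against 5×10^5 CFU/mL of LB-washed mid-log cells.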

Citrobacter diversus = assay: MIC against Gram-negative bacteria: Citrobacter diversus
Summary of the method: as §1

Moraxella catarrhalis = assay: MIC against Gram-negative bacteria: Moraxella catarrhalis
Summary of the method: as §1

Klebsiella pneumonia = assay: MIC against Gram-negative bacteria: Klebsiella pneumonia
Summary of the method: as §1

Proteus vulgaris = assay: MIC against Gram-negative bacteria: Proteus vulgaris
Summary of the method: as §1

Pseudomonas aeruginosa = assay: MIC against Gram-negative bacteria: Pseudomonas aeruginosa
Summary of the method: as §1

Serratia marcescens = assay: MIC against Gram-negative bacteria: Serratia marcescens
Summary of the method: as §1

[1] = 96-well plate, 5×10^5 CFU/mL, 37° C., 10 h
[2] = 10 h cultivation at 37° C., 5×10^5 CFU/mL, two-fold serial dilution
[3] = E. cloacae, 10 h cultivation at 37° C.
[4] = E. coli BL21, 10 h cultivation at 37° C.
[5] = A. hydrophila, 10 h cultivation at 37° C.
[6] = P. mirabilis, 10 h cultivation at 37° C.
[7] = C. diversus, 10 h cultivation at 37° C.
[8] = M. catarrhalis, 10 h cultivation at 37° C.
[9] = K. pneumonia, 10 h cultivation at 37° C.
[10] = P. vulgaris, 10 h cultivation at 37° C.
[11] = P. aeruginosa, 10 h cultivation at 37° C.
[12] = S. marcescens, 10 h cultivation at 37° C.

| Substance | MIC (E. coli DH5α) [µg/mL] | MIC E. cloacae (Enterobacter cloacae; [2]) [µg/mL] | MIC E. coli BL21 (E. coli BL21; [2]) [µg/mL] | MIC A. hydrophila (Aeromonas hydrophila; [2]) [µg/mL] | MIC P. mirabilis (Proteus mirabilis; [2]) [µg/mL] | MIC C. diversus (Citrobacter diversus; [2]) [µg/mL] | MIC M. catarrhalis (Moraxella catarrhalis; [2]) [µg/mL] | MIC K. pneumonia (Klebsiella pneumonia; [2]) [µg/mL] | MIC P. vulgaris (Proteus vulgaris; [2]) [µg/mL] | MIC P. aeruginosa (Pseudomonas aeruginosa; [2]) [µg/mL] | MIC S. marcescens (Serratia marcescens; [2]) [µg/mL] | MIC (Enterobacter cloacae; [3]) [µg/mL] | MIC (E. coli BL21; [4]) [µg/mL] | MIC (Aeromonas hydrophila; [5]) [µg/mL] | MIC (Proteus mirabilis; [6]) [µg/mL] | MIC (Citrobacter diversus; [7]) [µg/mL] | MIC (Moraxella catarrhalis; [8]) [µg/mL] | MIC (Klebsiella pneumonia; [9]) [µg/mL] | MIC (Proteus vulgaris; [10]) [µg/mL] | MIC (Pseudomonas aeruginosa; [11]) [µg/mL] | further results |
| --- | --- | --- | --- | --- | --- | --- | --- | --- | --- | --- | --- | --- | --- | --- | --- | --- | --- | --- | --- | --- | --- |
| PRT642 (DVNECDELNNRMSLCKNAKCINTDGSYKCLCLPGYVPSDKPNYCT; listed as Homo sapiens) | 12.5 |  |  |  |  |  |  |  |  |  |  |  |  |  |  |  |  |  |  |  | MIC E. cloacae (Enterobacter cloacae; [1]): 25 µg/mL; MIC E. coli BL21 (E. coli BL21; [1]): 50 µg/mL; MIC A. hydrophila (Aeromonas hydrophila; [1]): 50 µg/mL; MIC P. mirabilis (Proteus mirabilis; [1]): 25 µg/mL; MIC C. diversus (Citrobacter diversus; [1]): 25 µg/mL; MIC M. catarrhalis (Moraxella catarrhalis; [1]): 12.5 µg/mL; MIC K. pneumonia (Klebsiella pneumonia; [1]): 12.5 µg/mL; MIC P. vulgaris (Proteus vulgaris; [1]): 50 µg/mL; MIC P. aeruginosa (Pseudomonas aeruginosa; [1]): 25 µg/mL; MIC S. marcescens (Serratia marcescens; [1]): 25 µg/mL |
| PRT1180 (DIDYCEPNPCQNGAQCYNRASDYFCKCPEDYEGKNCS; listed as Homo sapiens) | 50 | 12.5 | 12.5 | 50 | 25 | 25 | 12.5 | 25 | 50 | 50 | 25 |  |  |  |  |  |  |  |  |  |  |
| PRT926 (EINECQSNPCVNNGQCVDKVNRFQCLCPPGFTGPVCQ; listed as Homo sapiens) | 25 |  |  |  |  |  |  |  |  |  |  | 25 | 50 | 50 | 50 | 12.5 | 25 | 12.5 | 25 | 25 | MIC (Serratia marcescens; [12]): 12.5 µg/mL |
| PRT1168 (NINDCSQNPCHNGGTCRDLVNDFYCDCKNGWKGKTCH; listed as Homo sapiens) | 25 | 12.5 | 12.5 | 50 | 12.5 | 12.5 | 50 | 50 | 50 | 25 | 12.5 |  |  |  |  |  |  |  |  |  |  |
| PRT828 (HGAGCQGLCWCQHGAPCDPISGRCLCPAGFHGHFCE; listed as Homo sapiens) | 12.5 |  |  |  |  |  |  |  |  |  |  |  |  |  |  |  |  |  |  |  | MIC (μg/mL) E. cloacae (Enterobacter cloacae; E. cloacae, 10 h cultivation at 37° C., 5×10^5 CFU/mL): 12.5 µg/mL; MIC (μg/mL) E. coli BL21 (E. coli BL21; E. coli BL21, 10 h cultivation at 37° C., 5×10^5 CFU/mL): 50 µg/mL; MIC (μg/mL) A. hydrophila (Aeromonas hydrophila; A. hydrophila, 10 h cultivation at 37° C., 5×10^5 CFU/mL): 50 µg/mL; MIC (μg/mL) P. mirabilis (Proteus mirabilis; P. mirabilis, 10 h cultivation at 37° C., 5×10^5 CFU/mL): 25 µg/mL; MIC (μg/mL) C. diversus (Citrobacter diversus; C. diversus, 10 h cultivation at 37° C., 5×10^5 CFU/mL): 12.5 µg/mL; MIC (μg/mL) M. catarrhalis (Moraxella catarrhalis; M. catarrhalis, 10 h cultivation at 37° C., 5×10^5 CFU/mL): 50 µg/mL; MIC (μg/mL) K. pneumonia (Klebsiella pneumonia; K. pneumonia, 10 h cultivation at 37° C., 5×10^5 CFU/mL): 50 µg/mL; MIC (μg/mL) P. vulgaris (Proteus vulgaris; P. vulgaris, 10 h cultivation at 37° C., 5×10^5 CFU/mL): 12.5 µg/mL; MIC (μg/mL) P. aeruginosa (Pseudomonas aeruginosa; P. aeruginosa, 10 h cultivation at 37° C., 5×10^5 CFU/mL): 12.5 µg/mL; MIC (μg/mL) S. marcescens (Serratia marcescens; S. marcescens, 10 h cultivation at 37° C., 5×10^5 CFU/mL): 25 µg/mL |
| PRT969 (LLSPCTPNPCEHGGRCESAPGQLPVCSCPQGWQGPRCQ; listed as Homo sapiens) | 50 |  |  |  |  |  |  |  |  |  |  | 25 | 12.5 | 25 | 50 | 12.5 | 25 | 50 | 25 | 25 | MIC (Serratia marcescens; [12]): 12.5 µg/mL |
